Data as given in US6599748B1, “Hardness indicator composition and method of water hardness analysis” (Miura Co., Ltd., priority 1999, dated 2003).
Read-outs that look alike come from different tables or passages of the source.

Legend:
[1] = Ca chelate stability constant (chelating power with calcium); type: physicochemical
Description: […]. […] […].

[2] = Description: Therefore, the desensitizer to be added to the metal indicator is explained. […] However, the desensitizer differs from the metal indicator in that the metal indicator forms complex ions in combination with all hardness-component metal ions, while the desensitizer forms complex ions in combination with part of the hardness-component metal ions. […] Symbol “ ” in results represents usableness as the desensitizer, and “×” represents unusableness as the desensitizer.
Accordingly, Table 1 show the results of judgment determined by taking into account these conditions.

Row | Ca chelate stability constant, logK [1] | Solubility, g/100 g water [2] | Molecule | Ca chelate stability constant, logK ([1]; chelating power with calcium)
1 | – | – | O=C([O-])CC(O)(CC(=O)[O-])C(=O)[O-].[Na+].[Na+].[Na+] [2Na citrate, sodium citrate] | <2.0
2 | 2.59 | – | O=C([O-])CNCC(=O)[O-].[K+].[K+] [2K iminodiacetate] | –
3 | 2.59 | 10 g/100 g water | O=C([O-])CNCC(=O)[O-].[Na+].[Na+] [2Na iminodiacetate, sodium iminodiacetate] | –
4 | <2.0 | over 40 g/100 g water | sodium polyacrylate [Na polyacrylate] | –

Row | Molecule | Ca chelate stability constant, logK [1] | Solubility, g/100 g water [2] | Ca chelate stability constant, logK ([1]; chelating power with calcium)
5 | O=C([O-])CC(O)(CC(=O)O)C(=O)[O-].[K+].[K+] [2K citrate] | <2.0 | – | –
